The text below walks through data of ChEMBL document CHEMBL5096185, “Structure-Guided Development of Small-Molecule PRC2 Inhibitors Targeting EZH2-EED Interaction” (J Med Chem, 2021).

Experiment [1] in a line: Inhibition of FITC-labeled EZH2 (40 to 63 residues) (unknown origin)-recombinant N-terminal 6His-SUMO tagged human EED (81 to 441 residues) expressed in Escherichia coli BL21 (DE3) cells protein-protein interaction incubated for 2 hrs by fluorescence polarization competition assay. Background: In fluorescence polarisation assays a small probe gives low polarisation when free and higher when bound to something large.

For experiment [2], the system named is Pfeiffer. Put plainly: Inhibition of PRC2 in human Pfeiffer cells assessed as reduction in EZH2 protein level measured after 72 hrs by Western blot analysis. Format: cell-based. The conditions noted are these: dose 0.6-10 µM, DDE = dose-dependent effect. A general note: A western blot detects proteins with antibodies after separation by electrophoresis.
Experiment [3] deals with SUD4. Put plainly: Induction of cell cycle arrest in human SU-DHL-4 cells assessed as decrease of cells in G2/M phase at 5 uM incubated for 3 days by PI/RNase staining based analysis (reference value: 8.6 %). In kind it is functional. Details: scale not given: the % may be the effect or the level left. The conditions noted are these: time 3 day.
The subject of experiment [4] is Pfeiffer. Put plainly: Induction of cell cycle arrest in human Pfeiffer cells assessed as decrease of cells in S phase at 5 uM incubated for 2 days by PI/RNase staining based analysis (reference value: 32.8 %). Format: functional. Details: scale not given: the % may be the effect or the level left. The conditions noted are these: time 2 day.
For experiment [5], the system named is SUD4. Put plainly: Induction of cell cycle arrest in human SU-DHL-4 cells assessed as accumulation of cells in G0/G1 phase at 5 uM incubated for 3 days by PI/RNase staining based analysis (reference value: 62.2 %). Format: functional. The conditions noted are these: time 3 day.
The subject of experiment [6] is Pfeiffer. Put plainly: Inhibition of PRC2 in human Pfeiffer cells assessed as reduction in EED protein level measured after 72 hrs by Western blot analysis. Format: cell-based. The conditions noted are these: dose 0.6-10 µM, DDE = dose-dependent effect.
Experiment [7] has as its target T1, Polycomb protein EED (Homo sapiens, UniProt O75530). Put plainly: Binding affinity to recombinant N-terminal 6His-SUMO tagged human EED (81 to 441 residues) expressed in Escherichia coli BL21 (DE3) cells assessed as binding constant (Koff) measured after 120 sec by SPR-based binding assay.
Target sequence in this assay (O75530 2-441 limits assumed): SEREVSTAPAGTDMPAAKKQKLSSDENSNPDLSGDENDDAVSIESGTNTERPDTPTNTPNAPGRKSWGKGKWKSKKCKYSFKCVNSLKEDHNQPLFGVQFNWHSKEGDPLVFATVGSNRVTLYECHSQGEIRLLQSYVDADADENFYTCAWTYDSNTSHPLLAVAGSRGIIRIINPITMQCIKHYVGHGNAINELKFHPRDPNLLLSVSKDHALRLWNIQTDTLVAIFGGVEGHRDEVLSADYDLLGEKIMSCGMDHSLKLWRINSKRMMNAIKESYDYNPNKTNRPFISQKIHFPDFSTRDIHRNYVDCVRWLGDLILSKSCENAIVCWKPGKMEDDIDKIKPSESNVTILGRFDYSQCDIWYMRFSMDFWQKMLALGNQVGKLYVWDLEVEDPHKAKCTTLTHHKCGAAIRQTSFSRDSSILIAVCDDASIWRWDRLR
The next experiment has as its system DB. The experiment is described as follows: Antiproliferative activity against human DB cells assessed as inhibition of cell growth incubated for 72 hrs by CellTiter-Glo assay. In kind it is functional, cell-based.
Experiment [8] relates to SUD4. The experiment is described as follows: Antiproliferative activity against human SU-DHL-4 cells assessed as inhibition of cell growth incubated for 72 hrs by CellTiter-Glo assay. Format: functional, cell-based. The conditions noted are these: SU-DHL-4, 72 h.
For a further experiment, the species on record is Homo sapiens. Put plainly: Binding affinity to EZH2 (39 to 68 residues) (unknown origin)/recombinant N-terminal 6His-SUMO tagged human EED (81 to 441 residues) expressed in Escherichia coli BL21 (DE3) cells assessed as T1rho signal recovery at 50 to 100 uM by NMR-based binding assay. The conditions noted are these: dose 50-100 µM.
Experiment [9] has as its system Pfeiffer. Put plainly: Inhibition of PRC2 in human Pfeiffer cells assessed as reduction in H3K27me3 level measured after 72 hrs by Western blot analysis. Format: cell-based. The conditions noted are these: dose 0.6-10 µM, DDE = dose-dependent effect.
Experiment [10] concerns the target T1, Polycomb protein EED. Put plainly: Binding affinity to recombinant N-terminal 6His-SUMO tagged human EED (81 to 441 residues) expressed in Escherichia coli BL21 (DE3) cells assessed as binding constant (Kon) measured after 120 sec by SPR-based binding assay.
Target sequence in this assay (O75530 2-441 limits assumed): as above
Experiment [11] relates to Pfeiffer. Put plainly: Inhibition of PRC2 in human Pfeiffer cells assessed as reduction in SUZ12 protein level measured after 72 hrs by Western blot analysis. Format: cell-based. The conditions noted are these: dose 0.6-10 µM, DDE = dose-dependent effect.
Experiment [12] concerns Pfeiffer. The experiment is described as follows: Antiproliferative activity against human Pfeiffer cells assessed as inhibition of cell growth incubated for 72 hrs by CellTiter-Glo assay. Format: functional, cell-based. (ATP-based viability assays read luminescence as a measure of living cells.)
A further experiment deals with KARPAS-422. The experiment is described as follows: Antiproliferative activity against human KARPAS-422 cells assessed as inhibition of cell growth incubated for 72 hrs by CellTiter-Glo assay. Format: functional, cell-based. The conditions noted are these: KARPAS-422, 72 h.
For experiment [13], the system named is Pfeiffer. The experiment is described as follows: Induction of cell cycle arrest in human Pfeiffer cells assessed as decrease of cells in G2/M phase at 5 uM incubated for 2 days by PI/RNase staining based analysis (reference value: 14.9 %). Format: functional. Details: scale not given: the % may be the effect or the level left. The conditions noted are these: time 2 day.

Experiment [14] deals with T1, Polycomb protein EED. The experiment is described as follows: Binding affinity to recombinant N-terminal 6His-SUMO tagged human EED (81 to 441 residues) expressed in Escherichia coli BL21 (DE3) cells assessed as dissociation constant measured after 240 sec by SPR-based binding assay.
Target sequence in this assay (O75530 whole entry, the tested form may be a part): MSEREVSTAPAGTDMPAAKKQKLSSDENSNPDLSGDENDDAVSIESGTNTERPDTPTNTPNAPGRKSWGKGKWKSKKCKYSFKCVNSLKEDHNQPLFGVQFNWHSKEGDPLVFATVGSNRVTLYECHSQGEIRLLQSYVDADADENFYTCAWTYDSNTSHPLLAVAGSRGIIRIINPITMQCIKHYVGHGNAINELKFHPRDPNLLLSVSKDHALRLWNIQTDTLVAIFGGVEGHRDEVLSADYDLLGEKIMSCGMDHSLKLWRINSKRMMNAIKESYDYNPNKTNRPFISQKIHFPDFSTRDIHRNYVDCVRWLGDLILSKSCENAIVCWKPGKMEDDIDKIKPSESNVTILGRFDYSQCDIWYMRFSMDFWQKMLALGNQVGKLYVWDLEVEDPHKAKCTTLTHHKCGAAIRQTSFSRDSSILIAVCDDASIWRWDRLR
The test system of experiment [15] is Pfeiffer. Put plainly: Induction of cell cycle arrest in human Pfeiffer cells assessed as accumulation of cells in G0/G1 phase at 5 uM incubated for 2 days by PI/RNase staining based analysis (reference value: 52.3%). In kind it is functional. The conditions noted are these: time 2 day.
The test system of experiment [16] is SUD4. Put plainly: Induction of cell cycle arrest in human SU-DHL-4 cells assessed as decrease of cells in G2/M phase at 5 uM incubated for 3 days by PI/RNase staining based analysis (reference value: 29.2 %). Format: functional. Also on record: scale not given: the % may be the effect or the level left. The conditions noted are these: time 3 day.

pIC50, pKd: −log10 of the molar value. Calls of active or inactive are those of the source. The calls are words filed in the database; no cut-off is given here.

Consider `COc1ccc(CCN2CC(Nc3nc4ccccc4n3Cc3ccc(F)cc3)C2)cc1`, for which the pIC50 in experiment [1] is 4.67.
For the compound `COc1ccc(CCN2CCC(Nc3nc4ccccc4n3Cc3ccc(C(F)(F)F)cc3)CC2)cc1`, in experiment [1], the pIC50 was 4.22.
In the case of `COc1ccc(CNc2ccc(Nc3nc4ccccc4n3Cc3ccc(F)cc3)cc2)cc1`, in experiment [1], the pIC50 is 4.47.
In the case of `COc1ccc(CCN2CCC(Nc3nc4ccccc4n3Cc3ccc(F)c([N+](=O)[O-])c3)CC2)cc1`, the pIC50 in [1] was 4.21.
Turning to `COc1ccc(CCNCCNc2nc3ccccc3n2Cc2ccc(F)cc2)cc1`, the pIC50 in [1] was 4.94.
With `COc1ccc(CCN2CCC(Nc3nc4ccccc4n3Cc3ccc([N+](=O)[O-])cc3)CC2)cc1`, the pIC50 in [1] is 4.18.
On to `COc1ccc(CCN2CCC(Nc3nc4ccccc4n3Cc3ccc(N)cc3)CC2)cc1`, for which the pIC50 in experiment [1] was 3.66.
In the case of `COc1ccc(CN[C@H]2CC[C@@H](Nc3nc4ccccc4n3Cc3ccc(F)cc3)CC2)cc1`, the pIC50 in experiment [1] is under 3.30.
With `Oc1ccc(CCN2CCC(Nc3nc4ccccc4n3Cc3ccc(F)cc3)CC2)cc1` [DESMETHEYLASTEMIZOLE], the pIC50 in experiment [1] was 3.72.
`COc1ccc(CCN2CCC(Nc3nc4c(N)cccc4n3Cc3ccc(F)cc3)CC2)cc1`: the pIC50 in experiment [1] is 4.31.
For `COc1ccc(CCN2CCC(Nc3nc4ccccc4n3Cc3ccc(F)cc3)C2)cc1` (centres undefined), the inhibition entry in the experiment with Pfeiffer [2], in the experiment on Pfeiffer [6], in the experiment with Pfeiffer [9] and with Pfeiffer [11] was “Dde” each time. In addition, the Activity with SUD4 [3] worked out at 0%; in the experiment on Pfeiffer [4], 17.6%; in the experiment with SUD4 [5], 84%; in the experiment with Pfeiffer [13], 6.2%; in the experiment with Pfeiffer [15] it was 76.2%; in the experiment on SUD4 [16], 16%. Also, the figures for the K at Polycomb protein EED [7] and on Polycomb protein EED [10] were 0.0205 s⁻¹ and 4500 M⁻¹ s⁻¹, respectively. The pIC50 in the experiment on DB was 5.02; with SUD4 [8], 5.23; in the experiment on Pfeiffer [12], 5.42; in the experiment on KARPAS-422, 5.22. Further, the result in the experiment listed under Homo sapiens was Active. At Polycomb protein EED [14], the pKd was 5.34.
As for `Oc1ccccc1CCN1CCC(Nc2nc3ccccc3n2Cc2ccc(F)cc2)CC1`, the pIC50 in experiment [1] is 3.76.
Take `COc1ccc(CCN2CCC(Nc3nc4ccccc4n3Cc3ccc(C)cc3)CC2)cc1`: in experiment [1], the pIC50 is 3.82.
On to `COc1ccc(CCN2CCC(Nc3nc4ccccc4n3Cc3ccc(F)cc3)CC2)cc1` [ASTEMIZOLE], for which, in experiment [1], the pIC50 was 4.13.
On to `COc1ccc(CNc2ccc(Nc3nc4ccccc4n3Cc3ccc(F)cc3)cn2)cc1`, for which, in experiment [1], the pIC50 is 4.49.
For the compound `Oc1cccc(CCN2CCC(Nc3nc4ccccc4n3Cc3ccc(F)cc3)CC2)c1`, the negative logarithm of the IC50 (pIC50) in [1] was 4.21.
With `COc1ccc(CCN2CCC(Nc3nc4ccccc4n3Cc3ccccc3)CC2)cc1`, in experiment [1], the pIC50 is 3.88.
`COc1ccc(CCN2CCC(Nc3nc4ccc(N)cc4n3Cc3ccc(F)cc3)CC2)cc1`: the pIC50 in experiment [1] is 4.19.
For `O=[N+]([O-])c1cccc(CCN2CCC(Nc3nc4ccccc4n3Cc3ccc(F)cc3)CC2)c1`, the pIC50 in experiment [1] is 3.47.
For `COc1ccc(CCNCCCNc2nc3ccccc3n2Cc2ccc(F)cc2)cc1`, the negative logarithm of the IC50 (pIC50) in experiment [1] is 3.33.
For `COc1ccc(CCN2CCC(Nc3nc4cc(N)ccc4n3Cc3ccc(F)cc3)CC2)cc1`, the pIC50 in [1] is 4.20.
Turning to `COc1ccc(CCN2CCC(Nc3nc4ccccc4n3Cc3ccc(F)c(F)c3)CC2)cc1`, the pIC50 in [1] was 4.25.
For the compound `COc1ccc(CCN2CCC(Nc3nc4ccccc4n3Cc3ccc(F)cc3[N+](=O)[O-])CC2)cc1`, the pIC50 in experiment [1] was 4.10.
For `COc1ccc(CCN2CCC(Nc3nc4cccc(N)c4n3Cc3ccc(F)cc3)CC2)cc1`, the pIC50 in [1] was 4.13.
For `COc1ccc(CN[C@H]2CC[C@H](Nc3nc4ccccc4n3Cc3ccc(F)cc3)CC2)cc1`, the pIC50 in experiment [1] is 4.10.
In the case of `COc1ccc(CCN2CC[C@H](Nc3nc4ccccc4n3Cc3ccc(F)cc3)C2)cc1`, the pIC50 in experiment [1] was 5.34.
With `Cc1ccc(CCN2CCC(Nc3nc4ccccc4n3Cc3ccc(F)cc3)CC2)cc1`, in experiment [1], the pIC50 was 4.06.

In general, pIC50 refers to the IC50 on a negative log10 scale, so that one unit is a factor of ten. As usually defined, the pKd is −log10 of the Kd, conventionally taken in molar units.
